Patent US20190023743A1, “METHODS AND COMPOSITIONS FOR MODULATING DRUG-POLYMER ARCHITECTURE, PHARMACOKINETICS AND BIODISTRIBUTION” (priority 2007, published 2019)

What was measured:
[1] = 4 days post administration; free doxorubicin 12.5, micelle 25, unimer 6.3 mg drug/kg body weight; Balb/C mice bearing C26 tumors
Method: Animals dosed near the maximum tolerated amount of doxorubicin lose body weight, and weight loss 4 days post doxorubicin administration is used in this experiment as a gross indicator of toxicity. Balb/C mice bearing C26 colon carcinoma tumors were systemically administered PBS, free doxorubicin, micelle doxorubicin-ELP, or unimer doxorubicin-ELP at 0, 12.5, 25, and 6.3 mg drug/kg body weight respectively. […] Error bars indicate the standard deviation (n=5).
The toxicity of doxorubicin-ELP was estimated by body weight loss. Animals that were dosed near the maximum tolerated amount of free doxorubicin, micelle doxorubicin-ELP or unimer doxorubicin-ELP lost body weight, and the weight observed 4 days after the injection of the doxorubicin composition was taken as a gross indicator of toxicity. Balb/C mice bearing C26 colon carcinoma tumors were systemically administered either PBS as a control or free doxorubicin, micelle doxorubicin-ELP, or unimer doxorubicin-ELP at 12.5, 25, and 6.3 mg drug/kg body weight, respectively. […] Error bars indicate the standard deviation (n=5).

[2] = test system: C26 colon carcinoma tumor; assay: Survival of tumor-bearing mice, C26 colon carcinoma; type: in vivo, Balb/C mice; conditions: free doxorubicin 12.5, micelle 25 mg drug/kg body weight, sacrificed after >15% body weight loss, Kaplan Meier analysis
Method: Eight days after subcutaneous implantation of C26 colon carcinoma tumor cells, Balb/C mice were randomized and treated. The mice were systemically administered either a PBS control or does of approximately equal toxicity of free doxorubicin at 12.5 mg drug/kg body weight or 25 mg drug/kg body weight micelle doxorubicin-ELP. Mice were sacrificed after losing >15% of their body weight due to tumor burden. The treatment groups were blinded during measurement.
The data shown in FIG. 13 were determined as follows: Eight days after subcutaneous implantation of C26 colon carcinoma tumor cells, Balb/C mice were randomized and treated. […] The mice were sacrificed after losing >15% of their body weight due to tumor burden. The treatment groups were blinded during measurement.

COc1cccc2c1C(=O)c1c(O)c3c(c(O)c1C2=O)C[C@@](O)(C(=O)CO)C[C@@H]3O[C@H]1C[C@H](N)[C@H](O)[C@H](C)O1 [free doxorubicin, doxorubicin]
toxicity estimated by body weight loss [1]: approximately equally toxic | survival time [2]: did not significantly effect survival time | survival time ([2]; listed as Free doxorubicin): did not have any significant effect on survival
